The nature of the data set: Stability in liquid nutritional type products during retort sterilization and room temperature storage. It counts as physicochemical. As to the method: In order to test the stability of N-acetyl-L-glutamine in a matrix similar to that found in liquid nutritional type products, the following procedure was followed. […] The product containing N-acetyl-L-glutamine was made according to the procedure set forth above in Example 1. The product containing glutamine was made in a similar manner, except […].79 kg) was substituted for N-acetyl-L-glutamine. The products were assessed for degradation before and after a retort sterilization process, which is typical for liquid nutritional processing (here, 128° C. for 5 minutes). The products were stored at room temperature (20-22° C.) and assessed for evidence of degradation at 1, 2 and 3 months. Glutamine, N-acetyl-L-glutamine and pyroglutamic acid (if present) were quantified at each process and time point. In order to analyze by HPLC for glutamine, N-acetyl-L-glutamine and pyroglutamic acid, samples were filtered as follows. A 5.0 mL aliquot was transferred to a 50 mL volumetric flask. Twenty drops of 1 M hydrochloric acid was added and the sample was diluted to volume with deionized water. An aliquot was filtered through a 0.45 micron filter (Millipore, Millex®-HV, 25 mm). The samples were analyzed by HPLC as described above (Heat Stability section). The total amount of pyroglutamic acid present in the protein formula, including both free pyroglutamic acid and N-terminal pyroglutamic acid, can be determined by the following method. Initially, samples were prepared as a water solution to a concentration of approximately 18 g total protein/L. A 20 microliter aliquot of the prepared sample material was placed in a 1.5 mL screw cap vial, and 980 microliters of a freshly prepared enzyme solution (0.05 M Tris, 0.005 M dithiothreitol, 0.001 M disodium ethylenediaminetetraacetic acid (EDTA), pH 8.0, containing 11 units of pyroglutamate aminopeptidase/mL) was added. The vial was tightly capped, and incubated at room temperature (21-24° C.) for 24 hours. The solution was then processed through a C-18 SPE cartridge as detailed below. For free pyroglutamic acid determination, the initial sample solution was diluted to a total protein content of 2-3 g/L in deionized water, and processed through a C-18 SPE cartridge. C-18 SPE (Solid Phase Extraction) cartridges (100 mg/1 mL size) were obtained from Burdick & Jackson, Muskegon, Mich. SPE cartridges were prepared for use with 2×5 volumes of methanol, and then rinsed with 2×5 volumes of deionized water. The 1 mL sample is then slowly applied, and flow-through material collected in a […] screw cap vial. Elution was completed by applying 2×500 microliters of deionized water, collecting pass through volume in the same vial. The eluate was mixed, and then an aliquot filtered through a 0.45 micrometer filter prior to HPLC analysis (25 mm, 0.45 micrometer filters were obtained from Gelman, Ann Arbor, Mich.). The HPLC system used had the following parameters: pump model G1312A, autosampler model G1313A, thermostatted column compartment model G1316A, diode array detector model G1315A, and peak integrator/data processor model […], all obtained from Agilent Technologies, Palo Alto, Calif. Column: 6.5×150 mm ION-310, 8 micrometer from Interaction Chromatography, San Jose, Calif. The system was pre-equilibrated in mobile phase (5 mN H2SO4) at 40° C. at 0.3 mL/min. prior to use. For analysis a 10 microliter aliquot of sample or standard was injected, and the column was eluted with mobile phase at 0.3 mL/min. and 40° C. Eluting materials were detected by UV absorption at 210 nm and 220 nm. The run time was 45 min. Unknown sample concentrations were determined by comparison to standards. Three aqueous solutions of pyroglutamic acid are usually sufficient as standards, i.e., 10, 20, and 40 mg/L (pyroglutamic acid obtained from Fluka, Milwaukee, Wis.).

[1] abbreviates: 1 month at room temperature after sterilization.
The mark [2] stands for this setting: 2 months at room temperature after sterilization.
[3] abbreviates: 3 months at room temperature after sterilization.
Where [4] appears, read: Post-Sterilization (retort, 128° C. for 5 minutes).

The text below walks through data of US20030134851A1, “Methods and compositions for providing glutamine” (priority 2001, published 2003).

“Also recorded” adds a separate entry of the source. Marks after values point to notes of the source that are not given here.

For `NC(=O)CC[C@H](N)C(=O)O` [Glutamine, glutamine], the “Glutamine in product with glutamine” value is, setting by setting: under setting [1], 13.7 mmol/L product; under setting [2], “no glutamine was detected; also recorded: trace”; under setting [3], “none”; under setting [4], 34.2 mmol/L product; (liquid nutritional type product, Pre-Sterilization (theoretical 87.6)) 97.8 mmol/L product. Besides, the “pyroglutamic acid in product with glutamine” value is, setting by setting: (1 month, calculated with response factor from glutamine standard) 92.9* mmol/L product; (2 months, calculated with response factor from pyroglutamic acid standard) 79.8** mmol/L product; (3 months, calculated with response factor from pyroglutamic acid standard) 80.6** mmol/L product; (Post-Sterilization, calculated with response factor from glutamine standard) 77.5* mmol/L product; (Pre-Sterilization, calculated with response factor from glutamine standard) 27.1* mmol/L product. Besides, the “Glutamine remaining as fraction of the original concentration” value (glutamine supplemented product, after the sterilization process) is on record as “about ⅓”.
As to `CC(=O)N[C@@H](CCC(N)=O)C(=O)O` [N-acetyl-L-glutamine], the “N-acetyl-L-glutamine in product with N-acetyl-L-glutamine” value stood at 89.8 mmol/L product under setting [1]; 94.1 mmol/L product under setting [2]; 89.3 mmol/L product under setting [3]; 89.8 mmol/L product under setting [4]; 92.5 mmol/L product (liquid nutritional type product, Pre-Sterilization (theoretical 87.7)). The “Degradation in the liquid nutritional type product (in words)” value (during sterilization or after 3 months room temperature storage) is “no degradation”.
